Laboratory results published in patent publication US20250059179A1, “Heterocyclic Compounds and Methods of Use” (AMGEN INC., priority 2021, published 2025).
Read-outs that look alike come from different tables or passages of the source.

Assays:
[1] = tested on: Phosphorylation of ERK1/2 in A-427 cells; assay: Phospho-ERK1/2 MSD Assay; assay type: cell-based; conditions: 2 h compound treatment, read-out: pERK (A427 cells) IC50
Method: A-427 (ATCC® HTB-53™) cells were cultured in RPMI 1640 Medium (ThermoFisher Scientific 11875093) containing 10% fetal bovine serum (ThermoFisher Scientific 16000044) and 1× penicillin-streptomycin-glutamine (ThermoFisher Scientific 10378016). Sixteen hours prior to compound treatment, A-427 cells were seeded in 96-well cell culture plates at a density of 25,000 cells/well and incubated at 37° C., 5% CO2. A compound dose-response titration was diluted in growth media, added to appropriate wells of a cell culture plate, and then incubated at 37° C., 5% CO2 for 2 h. Following compound treatment, cells were washed with ice-cold Dulbecco's phosphate-buffered saline, no Ca^2+ or Mg^2+ (ThermoFisher Scientific 14190144), and then lysed in RIPA buffer (50 mM Tris-HCl pH 7.5, 1% Igepal, 0.5% sodium deoxycholate, 150 mM NaCl, and 0.5% sodium dodecyl sulfate) containing protease inhibitors (Roche 4693132001) and phosphatase inhibitors (Roche 4906837001). Phosphorylation of ERK1/2 in compound-treated lysates was assayed using Phospho-ERK1/2 Whole Cell Lysate kits (Meso Scale Discovery K151DWD) according to the manufacturer's protocol. Assay plates were read on a Meso Scale Discovery Sector Imager 6000, and data were analyzed using a 4-parameter logistic model to calculate IC50 values.

[2] = target: His-tagged KRAS G12D protein (Homo sapiens, UniProt P01116, G12D); assay: KRAS G12D TR-FRET Assay; assay type: binding; conditions: biotinylated KRPep-2d substrate, 10 μM GDP;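 further: europium anti-His antibody paired with streptavidin-d2 as FRET partners, initial 30 min incubation, then peptide 1 h and detection reagents 1 h, all at room temperature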
Sequence of His-tagged KRAS G12D protein (P01116 1-188 isoform P01116-2 G12D): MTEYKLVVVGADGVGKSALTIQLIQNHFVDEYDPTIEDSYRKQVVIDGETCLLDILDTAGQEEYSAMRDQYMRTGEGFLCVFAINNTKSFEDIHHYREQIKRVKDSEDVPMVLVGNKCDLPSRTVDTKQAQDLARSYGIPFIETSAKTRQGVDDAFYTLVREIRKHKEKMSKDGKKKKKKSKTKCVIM

[3] = target: GDP-bound KRAS protein (aa 1-169), containing both G12D and C118A amino acid substitutions (Homo sapiens, UniProt P01116, C118A/G12D); assay: KRAS G12D Coupled Nucleotide Exchange Assay; assay type: biochemical; conditions: 2 h compound pre-incubation; SOS-mediated nucleotide exchange, cRAF AlphaScreen readout;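 further: IC50 obtained by fitting the AlphaScreen signal with a four-parameter logistic curve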
Sequence of GDP-bound KRAS protein (aa 1-169), containing both G12D and C118A amino acid substitutions (P01116 1-169 isoform P01116-2 G12D/C118A): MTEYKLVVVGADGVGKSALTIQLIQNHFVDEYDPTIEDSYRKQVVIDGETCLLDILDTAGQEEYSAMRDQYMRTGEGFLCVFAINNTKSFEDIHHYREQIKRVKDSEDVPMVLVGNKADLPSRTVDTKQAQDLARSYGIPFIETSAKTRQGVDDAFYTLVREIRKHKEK

SMILES | IC50 ([1]; Homo sapiens, A-427, 2 h) | IC50 [2] | Avg 2 h Coupled Exchange IC50 [3] | IC50 [1]
Nc1nc2c(-c3c(Cl)cc4c(N5C6CCNCC5CC6)nc(OC[C@@]56CCCN5C[C@H](F)C6)nc4c3F)ccc(F)c2s1 (single isomer, unassigned) [Example 32] | – | 54 nM | 16 nM | 164 nM
Nc1nc2c(-c3c(Cl)cc4c(N5C6CCNCC5CC6)nc(OC[C@@]56CCCN5C[C@H](F)C6)nc4c3F)ccc(F)c2s1 (single isomer, unassigned) [Example 33] | – | 63 nM | 10 nM | 879 nM
Nc1nc2c(-c3c(Cl)cc4c(N5CCNCC5)nc(OC[C@]56CCCN5C[C@H](F)C6)nc4c3F)cccc2s1 [Example 46, 4-(6-chloro-8-fluoro-2-(((2R,7aR)-2-fluorotetra-hydro-1H-pyrrolizin-7a(5H)-yl)methoxy)-4-(piperazin-1-yl)quinazolin-7-yl)benzo[d] thiazol-2-amine] | 3950 nM | – | – | –
CN1CCC[C@H]1CNc1nc(N2CCNCC2)c2cc(Cl)c(-c3cccc4sc(N)nc34)c(F)c2n1 [Example 70, 4-(6-chloro-8-fluoro-2-((((S)-1-methyl-pyrrolidin-2-yl)methyl)amino)-4-(piperazin-1-yl)quinazolin-7-yl)benzo[d] thiazol-2-amine] | – | 10700 nM | 2140 nM | –
CC(=O)N1CCC[C@H]1COc1nc(N2CCNCC2)c2cc(Cl)c(-c3cccc4sc(N)nc34)c(F)c2n1 [Example 71, 1-((2S)-2-(((7-(2-aminobenzo[d]thiazol-4-yl)-6-chloro-8-fluoro-4-(piperazin-1-yl)quinazolin-2-yl)oxy)methyl)pyrrolidin-1-yl)ethan-1-one] | – | 3980 nM | 2530 nM | –
Nc1nc2c(-c3c(Cl)cc4c(N5CCNCC5)nc(OCC56CCC(CC5)N6)nc4c3F)cccc2s1 [Example 75, 4-(2-(((1s,4s)-7-azabicyclo[2.2.1]heptan-1-yl)methoxy)-6-chloro-8-fluoro-4-(piperazin-1-yl)quinazolin-7-yl)benzo[d] thiazol-2-amine] | – | 1850 nM | 797 nM | –
CCN1CCC(Oc2nc(N3CCNCC3)c3cc(Cl)c(-c4cccc5sc(N)nc45)c(F)c3n2)CC1 [Example 128, 4-(6-chloro-2-((1-ethylpiperidin-4-yl)oxy)-8-fluoro-4-(piperazin-1-yl)quinazolin-7-yl)benzo[d]thiazol-2-amine] | – | 1480 nM | 411 nM | –
Cc1cc(-c2c(Cl)cc3c(N4CCNCC4)nc(OC[C@@H]4CCCN4C)nc3c2F)c2nc(N)sc2c1 [Example 129, 4-(6-chloro-8-fluoro-2-(((S)-1-methylpyrrolidin-2-yl)methoxy)-4-(piperazin-1-yl)quinazolin-7-yl)-6-methylbenzo[d]thiazol-2-amine] | – | 5300 nM | 1090 nM | –
CN1CCC[C@H]1COc1nc(N2CCNCC2)c2cc(Cl)c(-c3ccc(C(F)(F)F)c4sc(N)nc34)c(F)c2n1 [Example 131, 4-(6-chloro-8-fluoro-2-(((S)-1-methylpyrrolidin-2-yl)methoxy)-4-(piperazin-1-yl)quinazolin-7-yl)-7-(trifluoromethyl)benzo [d]thiazol-2-amine] | – | 1400 nM | 735 nM | –
CN1CCC[C@H]1COc1nc(N2CCNCC2)c2cc(F)c(-c3cccc4sc(N)nc34)c(F)c2n1 [Example 134, 4-(6,8-difluoro-2-(((S)-1-methylpyrrolidin-2-yl)methoxy)-4-(piperazin-1-yl)quinazolin-7-yl)benzo[d]thiazol-2-amine] | – | 2390 nM | 391 nM | –
CC1=C(c2nc(OC[C@@H]3CCCN3C)nc3c(F)c(-c4cccc5sc(N)nc45)c(Cl)cc23)CCNC1 [Example 147, 4-(6-chloro-8-fluoro-4-(5-methyl-1,2,3,6-tetrahydropyridin-4-yl)-2-(((S)-1-methylpyrrolidin-2-yl)methoxy)quinazolin-7-yl)benzo[d]thiazol-2-amine] | – | 11200 nM | 3550 nM | –

The remaining compounds from weak to strong by IC50 [2], led by results:

IC50 ([1]; Homo sapiens, A-427, 2 h) | IC50 [2] | Avg 2 h Coupled Exchange IC50 [3] | SMILES | IC50 [1]
– | 882 nM | 578 nM | CN1C[C@H](F)C[C@H]1COc1nc2c(F)c(-c3ccc(F)c4sc(N)nc34)c(Cl)cc2c(N2[C@@H]3CC[C@H]2CNC3)c1C#N [Example 160, 7-(2-amino-7-fluorobenzo[d]thiazol-4-yl)-4-((1R,5S)-3,8-diazabicyclo[3.2.1]octan-8-yl)-6-chloro-8-fluoro-2-(((2S,4R)-4-fluoro-1-methylpyrrolidin-2-yl)methoxy)quinoline-3-carbonitrile] | –
– | 365 nM | 189 nM | CN1CCC[C@H]1COc1nc(N2CCNCC2)c2cc(C#N)c(-c3cccc4sc(N)nc34)c(F)c2n1 [Example 156, 7-(2-Aminobenzo[d]thiazol-4-yl)-8-fluoro-2-(((S)-1-methylpyrrolidin-2-yl)methoxy)-4-(piperazin-1-yl)quinazoline-6-carbonitrile] | –
– | 187 nM | 40 nM | Cc1cc2c(N3CCNCC3)nc(OC[C@@H]3CCCN3C)nc2c(F)c1-c1cccc2sc(N)nc12 [Example 155, 4-(8-Fluoro-6-methyl-2-(((S)-1-methylpyrrolidin-2-yl)methoxy)-4-(piperazin-1-yl)quinazolin-7-yl)benzo[d]thiazol-2-amine] | –
4730 nM | 107 nM | 13 nM | Nc1nc2c(-c3c(Cl)cc4c(N5CC6CNCC5C6)nc(OC[C@@]56CCCN5C[C@H](F)C6)nc4c3F)ccc(F)c2s1 (single isomer, unassigned) [Example 29] | –
– | 96 nM | 15 nM | Nc1nc2c(-c3c(Cl)cc4c(N5CC6CNCC5C6)nc(OC[C@@]56CCCN5C[C@H](F)C6)nc4c3F)ccc(F)c2s1 (single isomer, unassigned) [Example 30] | 7910 nM
– | 73 nM | 23 nM | CN1CCC[C@H]1COc1nc2c(F)c(-c3ccc(F)c4sc(N)nc34)c(Cl)cc2c(N2CCNCC2)c1C#N [Example 157, 7-(2-Amino-7-fluorobenzo[d]thiazol-4-yl)-6-chloro-8-fluoro-2-(((S)-1-methylpyrrolidin-2-yl)methoxy)-4-(piperazin-1-yl)quinoline-3-carbonitrile] | –
– | 12 nM | 3 nM | Nc1nc2c(-c3ccc4c(N5C[C@H]6CC[C@@H](C5)N6)nc(OC[C@@]56CCCN5C[C@H](F)C6)nc4c3F)ccc(F)c2s1 [Example 140, 4-(4-((1R,5S)-3,8-diazabicyclo[3.2.1]octan-3-yl)-8-fluoro-2-(((2R,7aS)-2-fluorotetrahydro-1H-pyrrolizin-7a(5H)-yl)methoxy)quinazolin-7-yl)-7-fluorobenzo[d]thiazol-2-amine] | –
– | 11 nM | 3 nM | Cc1c(-c2ccc(F)c3sc(N)nc23)ccc2c(N3C[C@H]4CC[C@@H](C3)N4)nc(OC[C@@]34CCCN3C[C@H](F)C4)nc12 [Example 139, 4-(4-((1R,5S)-3,8-diazabicyclo[3.2.1]octan-3-yl)-2-(((2R,7aS)-2-fluorotetrahydro-1H-pyrrolizin-7a(5H)-yl)methoxy)-8-methylquinazolin-7-yl)-7-fluorobenzo[d]thiazol-2-amine] | –
– | 10 nM | 8 nM | Nc1nc2c(-c3c(F)cc4c(N5C[C@@H]6CC[C@H]5CN6)nc(OC[C@@]56CCCN5C[C@H](F)C6)nc4c3F)ccc(F)c2s1 [Example 143, 4-(4-((1S,4S)-2,5-diazabicyclo[2.2.2]octan-2-yl)-6,8-difluoro-2-(((2R,7aS)-2-fluorotetrahydro-1H-pyrrolizin-7a(5H)-yl)methoxy)quinazolin-7-yl)-7-fluorobenzo[d]thiazol-2-amine] | –
– | 4 nM | 7 nM | Nc1nc2c(-c3c(F)cc4c(N5[C@@H]6CC[C@H]5CNC6)nc(OC[C@@]56CCCN5C[C@H](F)C6)nc4c3F)ccc(F)c2s1 [Example 142, 4-(4-((1R,5S)-3,8-diazabicyclo[3.2.1]octan-8-yl)-6,8-difluoro-2-(((2R,7aS)-2-fluorotetrahydro-1H-pyrrolizin-7a(5H)-yl)methoxy)quinazolin-7-yl)-7-fluorobenzo[d]thiazol-2-amine] | –
– | 2 nM | 2 nM | Nc1nc2c(-c3c(F)cc4c(N5C[C@H]6CC[C@@H](C5)N6)nc(OC[C@@]56CCCN5C[C@H](F)C6)nc4c3F)ccc(F)c2s1 [Example 141, 4-(4-((1R,5S)-3,8-diazabicyclo [3.2.1]octan-3-yl)-6,8-difluoro-2-(((2R,7aS)-2-fluorotetrahydro-1H-pyrrolizin-7a(5H)-yl)methoxy)quinazolin-7-yl)-7-fluorobenzo[d]thiazol-2-amine] | –
